What all share (type): in vivo, mouse
In one experiment the test system is p16-positive cells. Put plainly: Eicosanoid synthase gene expression in livers of doxorubicin-treated or aged p16-3MR mice. The settings on record: liver. Here is the method:
RNA was extracted from cells or tissues using commercially available kits (Isolate II—Bioline for cells; Direct-zol—Zymo for tissues) according to the manufacturer's instructions. cDNA synthesis was performed using a High Capacity cDNA Reverse Transcription Kit (Thermo Fisher) according to the manufacturer's instructions. Quantitative PCR was performed on a LightCycler 480 II (Roche) using primers and probes designed for the Universal Probe Library. Primers and probes used for human transcripts were ACTB: 5′-CCAACCGCGAGAAGATGA (SEQ ID NO:1), 5′-TCCATCACGATGCCAGTG (SEQ ID NO:2), Probe #64; TUBA: 5′-cttcgtctccgccatcag (SEQ ID NO:3), 5′-ttgccaatctggacacca (SEQ ID NO:4), Probe #58; ALOX5: 5′-[…] (SEQ ID NO:5), 5′-[…] (SEQ ID NO:6), Probe #64; ALOX5AP: 5′-ggtctgcggggctacttt (SEQ ID NO:7), 5′-[…] (SEQ ID NO:8), Probe #18; ALOX12: 5′-[…] (SEQ ID NO:9), 5′-agccaggtcgtcaggag (SEQ ID NO:10), Probe #32; ALOX15: 5′-[…] (SEQ ID NO:11), 5′-[…] (SEQ ID NO:12), Probe #76; ALOX15B: 5′-[…] (SEQ ID NO:13), 5′-actgggaggcgaagaagg (SEQ ID NO:14), Probe #51; AKR1C1: 5′-catgcctgtcctgggattt (SEQ ID NO:15), 5′-[…] (SEQ ID NO:16), Probe #49; AKR1C2: 5′-ctatgcgcctgcagaggt (SEQ ID NO:17), 5′-[…] (SEQ ID NO:18), Probe #31; AKR1C3: 5′-[…] (SEQ ID NO:19), 5′-[…] (SEQ ID NO:20), Probe #78; CYSLTR2: 5′-[…] (SEQ ID NO:21), 5′-[…] (SEQ ID NO:22), Probe #18; DPEP1: 5′-gacgtcctgaggctggtg (SEQ ID NO:23), 5′-[…] […]

Experiment [1] has as its system C57BL6/J and p16-3MR mice injured with bleomycin. Put plainly: Bleomycin-induced pulmonary fibrosis in mice. As to the method: RNA was extracted from cells or tissues using commercially available kits (Isolate II—Bioline for cells; Direct-zol—Zymo for tissues) according to the manufacturer's instructions. cDNA synthesis was performed using a High Capacity cDNA Reverse Transcription Kit (Thermo Fisher) according to the manufacturer's instructions. Quantitative PCR was performed on a LightCycler 480 II (Roche) using primers and probes designed for the Universal Probe Library. Primers and probes used for human transcripts were ACTB: 5′-CCAACCGCGAGAAGATGA (SEQ ID NO:1), 5′-TCCATCACGATGCCAGTG (SEQ ID NO:2), Probe #64; TUBA: 5′-cttcgtctccgccatcag (SEQ ID NO:3), 5′-ttgccaatctggacacca (SEQ ID NO:4), Probe #58; ALOX5: 5′-[…] (SEQ ID NO:5), 5′-[…] (SEQ ID NO:6), Probe #64; ALOX5AP: 5′-ggtctgcggggctacttt (SEQ ID NO:7), 5′-[…] (SEQ ID NO:8), Probe #18; ALOX12: 5′-[…] (SEQ ID NO:9), 5′-agccaggtcgtcaggag (SEQ ID NO:10), Probe #32; ALOX15: 5′-[…] (SEQ ID NO:11), 5′-[…] (SEQ ID NO:12), Probe #76; ALOX15B: 5′-[…] (SEQ ID NO:13), 5′-actgggaggcgaagaagg (SEQ ID NO:14), Probe #51; AKR1C1: 5′-catgcctgtcctgggattt (SEQ ID NO:15), 5′-[…] (SEQ ID NO:16), Probe #49; AKR1C2: 5′-ctatgcgcctgcagaggt (SEQ ID NO:17), 5′-[…] (SEQ ID NO:18), Probe #31; AKR1C3: 5′-[…] (SEQ ID NO:19), 5′-[…] (SEQ ID NO:20), Probe #78; CYSLTR2: 5′-[…] (SEQ ID NO:21), 5′-[…] (SEQ ID NO:22), Probe #18; DPEP1: 5′-gacgtcctgaggctggtg (SEQ ID NO:23), 5′-[…] (SEQ ID NO:24), Probe #9 (SEQ ID NO:25), ELOVL2: 5′-[…] (SEQ ID NO:26), 5′-[…] (SEQ ID NO:27), Probe #53; ELOVL4: 5′-catttggcccatggattc (SEQ ID NO:28), 5′-[…] (SEQ ID NO:29), Probe #31; ELOVL5: 5′-cccttccatgcgtccata (SEQ ID NO:30), 5′-[…] (SEQ ID NO:31), Probe #31; EPHX2: 5′-ttctgctggacaccctgaa (SEQ ID NO:32), 5′-[…] (SEQ ID NO:33), Probe #45; GPX4: 5′-ttcccgtgtaaccagttcg (SEQ ID NO:34), 5′-[…] (SEQ ID NO:35), Probe #36; LTA4H: 5′-ctgctctcacggtccagtc (SEQ ID NO:36), 5′-[…] (SEQ ID NO:37), Probe #64; LTBR2: 5′-[…] (SEQ ID NO:38), 5′-[…] (SEQ ID NO:39), Probe #33; LTC4S: 5′-[…] (SEQ ID NO:40), 5′-[…] (SEQ ID NO:41), Probe #18; PTGDS: 5′-[…] (SEQ ID NO:42), 5′-[…] (SEQ ID NO:43), Probe #36; PTGES: 5′-agagatgcctgcccacag (SEQ ID NO:44), 5′-tggccaccacgtacatctt (SEQ ID NO:45), Probe #4; PTGES2: 5′-[…] (SEQ ID NO:46), 5′-[…] (SEQ ID NO:47), Probe #49; PTGES3 (SEQ ID NO:48), 5′-[…] (SEQ ID NO:49), 5′-[…] (SEQ ID NO:50), Probe #48; PTGIS: 5′-[…] (SEQ ID NO:51), 5′-[…] (SEQ ID NO:52), Probe #45; PTGR1: 5′-atgatggggcagcaagtg (SEQ ID NO:53), 5′-cccatcagaaatggagtgc (SEQ ID NO:54), Probe #64; PTGS1: 5′-[…] (SEQ ID NO:55), 5′-gtggtggtccatgttcctg (SEQ ID NO:56), Probe #81; PTGS2: 5′-gatccccagggctcaaac (SEQ ID NO:57), 5′-[…] (SEQ ID NO:58), Probe #61; TBXAS1: 5′-[…] (SEQ ID NO:59), 5′-tgcctcccgtgtgaatct (SEQ ID NO:60), Probe #73; AREG: 5′-[…] (SEQ ID NO:61), 5′-[…] (SEQ ID NO:62), Probe #73; CCL2: 5′-AGTCTCTGCCGCCCTTCT (SEQ ID NO:63), 5′-GTGACTGGGGCATTGATTG (SEQ ID NO:64), Probe #40; CCL27: 5′-[…] (SEQ ID NO:65), 5′-gctgggtggcagtaggaat (SEQ ID NO:66), Probe #18; CXCL1: 5′-[…] (SEQ ID NO:67), 5′-[…] (SEQ ID NO:68), Probe #52; HGF: 5′-[…] (SEQ ID NO:69), 5′-[…] (SEQ ID NO:70), Probe #49; ILIA: 5′-[…] (SEQ ID NO:71), 5′-[…] (SEQ ID NO:72), Probe #6; IL1B: 5′-[…] (SEQ ID NO:73), 5′-[…] (SEQ ID NO:74), Probe #78; IL6: 5′-[…] (SEQ ID NO:75), 5′-gaaggcagcaggcaacac (SEQ ID NO:76), Probe #45; IL8: 5′-[…] (SEQ ID NO:77), 5′-atggttccttccggtggt (SEQ ID NO:78), Probe #72; IL10: 5′-[…] (SEQ ID NO:79), 5′-[…] (SEQ ID NO:80), Probe #67; MMP3: 5′-[…] (SEQ ID NO:81), 5′-[…] (SEQ ID NO:82), Probe #36; PDGFA: 5′-[…] (SEQ ID NO:83), 5′-[…] […]

Experiment [2] shares this test system. Briefly: Bleomycin-induced pulmonary fibrosis in mice. The source holds these as a separate data set.
The mark [3] stands for this setting: bleomycin-treated animals, day 14, ELISA.

In the case of `Nc1nc(O)c2ncn(COC(CO)CO)c2n1` [GCV, ganciclovir], the eicosanoid synthase expression result in the experiment on p16-positive cells (doxorubicin-treated p16-3MR mice, day 10) is “reduced”. The eicosanoid synthase expression entry with p16-positive cells (p16-3MR mice aged 21 months) is recorded as “not statistically significant”. Further, the “RNA levels of p16INK4a and p21WAF1 in lungs” value in experiment [1] (14 days after bleomycin injury) is reported as “significantly attenuated”. The “collagen expression (Col3a1 and Col4a1)” value in experiment [1] (bleomycin-injured mice, 21 days after injury as printed) is on record as “reduced”. Also, the “collagen content (hydroxyproline)” value in experiment [2] (21 days after injury) was “reduced”. Further, in experiment [2] (setting [3]), the “cysteinyl leukotrienes in bronchioalveolar lavage fluid (BALF)” value is on record as “reduced” and the “prostaglandin E2 in bronchioalveolar lavage fluid (BALF)” value is recorded as “reduced”.

Values taken from patent US20200371122A1, “BIOMARKER FOR SENESCENT CELLS” (Buck Institute for Research on Aging, priority 2017, published 2020).
